From patent publication US4954488A, “Method of treating hyperaldosteronism using 17β-cyclopropylaminoandrostene derivatives” (Merrell Dow Pharmaceuticals Inc., priority 1989, dated 1990) come the findings set out here.

The target of the test is T1, enzymes in the synthesis of aldosterone (Rattus norvegicus, UniProt P30099).
T1 construct: From these animals, adrenal capsule/glomerulosa homogenates were prepared; from tissue; host or cells: adrenal capsule/glomerulosa homogenate of sodium-deficient young male Sprague-Dawley rats
The experiment in a line: Inhibition of aldosterone formation from [3H]-DOC in rat adrenal capsule/glomerulosa homogenates. Type of test: biochemical, Sprague-Dawley rats. The settings on record: pH 7.4, 25° C.; for IC50: 40 minute preincubation data, 10-minute assay, 1 μM [3H]-DOC, read-out: IC50 (half-maximal inhibition of aldosterone formation); for t50 (t1/2 for enzyme inactivation at infinite inhibitor concentration) / Ki: linear regression of t1/2 vs. 1/[I], Kitz-Wilson plots; for Ki: read-out: Ki for time-dependent inhibition. On the procedure: Young male Sprague-Dawley rats were maintained on a sodium-deficient diet for about two weeks prior to use. From these animals, adrenal capsule/glomerulosa homogenates were prepared (6 mg/ml) in pH 7.4 assay buffer [MgCl2 8.5 mM, CaCl2 2.7 mM, KCl 3.13 mM, NaCl 7.591 mM, TRIS 50 mM and 0.1% triethylamine] and centrifuged 500xg for 10 minutes.
Assays were conducted in 35 ml glass tubes maintained at 25° C. in a Dubnoff shaker with 95% O2 /5% CO2. The tubes contained the following material: 100 μl of an NADPH^+ generating system, 300 μl of adrenal capsular/glomerulosa cytosol, and 50 μl of test compound or buffer (control). After initial preincubation intervals of 20 minutes, the 10-minute assay was started by the addition of 50 μl of tritium-labelled substrate, i.e., 1 μM [^3 H]-DOC. Reactions were quenched by the addition of 5 ml of ethyl acetate and non-radiolabelled steroids were also added. The samples were extracted twice with 5 ml of ethyl acetate and the solvent evaporated under nitrogen at 30°-40° C.
Residues were redissolved in methanol:water (40:60) with 0.1% triethylamine and high performance liquid chromatography was used to separate products on a C18 reverse phase (5μ ODS-Hypersil) column (4.6×250 mm, Shannon) with a 1 ml/min flow rate using an MeOH:H20 gradient (solvent A 10/90:solvent B 90/10).
Substrate remaining and products formed were monitored by UV absorbance at 246 nm and the amount of steroid compound present was quantified by [^3 H] radioactivity. The concentration of compound to produce half-maximal inhibition (IC50) of aldosterone formation from the 40 minute preincubation data was graphically estimated from a linear-log plot of percent inhibition vs. log of the compound concentration. The Ki for time-dependent inhibition and the t1/2 for enzyme inactivation at infinite inhibitor concentration (t50) was determined by the linear regression analyses of t1/2 vs. 1/[I] data of Kitz-Wilson plots. Using this procedure, the following results were observed: […]

Regarding `C[C@]12CC[C@H]3[C@@H](CCC4=CC(=O)CC[C@@]43C)[C@@H]1CC[C@@H]2NC1CC1` [17β-(Cyclopropylamino)androst-4-en-3-one], the IC50 (usually the concentration needed to halve the response being measured) came to 180 nM.
As to `C[C@]12CC[C@H]3[C@@H](CC=C4C[C@@H](O)CC[C@@]43C)[C@@H]1CC[C@@H]2NC1CC1` [17β-(Cyclopropylamino)androst-5-en-3β-ol], the IC50 was determined as 1100 nM, the “t50 (t1/2 for enzyme inactivation at infinite inhibitor concentration)” value turned out to be 9.7 min and the Ki amounted to 4850 nM.
In the same order, the values of `CN(C1CC1)[C@H]1CC[C@H]2[C@@H]3CC=C4C[C@@H](O)CC[C@]4(C)[C@H]3CC[C@]12C` [17β-[N-Methyl(cyclopropylamino)]-androst-5-en-3β-ol] are 350 nM, 9.0 min and 350 nM.
The corresponding values for `CN(C1CC1)[C@H]1CC[C@H]2[C@@H]3CCC4=CC(=O)CC[C@]4(C)[C@H]3CC[C@]12C` [17β-[N-Methyl(cyclopropylamino)]androst-4-en-3-one] are 130 nM, 15.4 min and 140 nM.
